Measured values: patent US8071625B2, “Certain chemical entities, compositions, and methods” (Cytokinetics, Inc., priority 2006, dated 2011)

molecular target: T1, crosslinked smooth muscle actomyosin (chicken gizzard smooth muscle myosin subfragment-1 crosslinked to cardiac or skeletal actin) (Gallus gallus, UniProt P10587); assay: Lead optimization pyruvate kinase/horseradish peroxidase/pyruvate oxidase-coupled ATPase assay (compound dose response); assay type: biochemical; details: read-out: IC50 Arithmetic Mean
T1 construct: chicken gizzard smooth muscle myosin subfragment-1; from tissue; host or cells: chicken gizzard
Outline: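 The ATPase used chicken gizzard smooth muscle myosin S1 chemically crosslinked to cardiac or skeletal actin, titrated to a set hydrolysis rate. It was coupled via pyruvate kinase/pyruvate oxidase/HRP in 12 mM K-PIPES pH 7.00 (22 °C) with 0.15 mM ATP, 2 mM MgCl2, 100 mM KCl and 0.1 mM Amplex Red. Fluorescence was read at ex 480/em 615 nm, and IC50 came from a 4-parameter fit.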

| Structure (SMILES) | IC50 [nM] |
| --- | --- |
| CCc1ccc(NC(=O)OCC2(C(=O)NCc3ccccc3Cl)CCN(C(=O)C3CCNCC3)CC2)cc1 [N-[(2-chlorophenyl)methyl](4-{[N-(4-ethylphenyl)carbamoyloxy]methyl}-1-(4-piperidylcarbonyl)(4-piperidyl))carboxamide] | 808 |
| CCc1ccc(NC(=O)OCC2(C(=O)NCc3ccccc3Cl)CCN(C(=O)NC)CC2)cc1 [N-[(2-chlorophenyl)methyl](4-{[N-(4-ethylphenyl)carbamoyloxy]methyl}-1-(N-methylcarbamoyl)(4-piperidyl))carboxamide] | 302 |
| CCc1ccc(NC(=O)OCC2(C(=O)NCc3ccccc3Cl)CCN(C(=O)c3ncc[nH]3)CC2)cc1 [N-[(2-chlorophenyl)methyl](4-{[N-(4-ethylphenyl)carbamoyloxy]methyl}-1-(imidazol-2-ylcarbonyl)(4-piperidyl))carboxamide] | 394 |
| CCc1ccc(NC(=O)OCC2(C(=O)NCc3ccccc3Cl)CCN(S(C)(=O)=O)CC2)cc1 [N-[(2-chlorophenyl)methyl](4-{[N-(4-ethylphenyl)carbamoyloxy]methyl}-1-(methylsulfonyl)(4-piperidyl))carboxamide] | 496 |
| CCc1ccc(NC(=O)OCC2(C(=O)NCc3ccccc3Cl)CCN(C(=O)C3COCCN3)CC2)cc1 (stereo not drawn) [N-[(2-chlorophenyl)methyl](4-{[N-(4-ethylphenyl)carbamoyloxy]methyl}-1-(morpholin-3-ylcarbonyl)(4-piperidyl))carboxamide] | 515 |
| CCc1ccc(NC(=O)OCC2(C(=O)NCc3ccccc3Cl)CCN(C(=O)c3ccccc3)CC2)cc1 [N-[(2-chlorophenyl)methyl](4-{[N-(4-ethylphenyl)carbamoyloxy]methyl}-1-(phenylcarbonyl)(4-piperidyl))carboxamide] | 412 |
| CCc1ccc(NC(=O)OCC2(C(=O)NCc3ccccc3Cl)CCN(C(=O)CNC)CC2)cc1 [N-[(2-chlorophenyl)methyl](4-{[N-(4-ethylphenyl)carbamoyloxy]methyl}-1-[2-(methylamino)acetyl](4-piperidyl))carboxamide] | 213 |
| CCc1ccc(NC(=O)OCC2(C(=O)NCc3ccccc3Cl)CCN(C(=O)C(C)NC)CC2)cc1 (stereo not drawn) [N-[(2-chlorophenyl)methyl](4-{[N-(4-ethylphenyl)carbamoyloxy]methyl}-1-[2-(methylamino)propanoyl](4-piperidyl))carboxamide] | 1780 |
| CCc1ccc(NC(=O)OCC2(C(=O)NCc3ccccc3Cl)CCN(C(=O)C(C)(CO)CO)CC2)cc1 [N-[(2-chlorophenyl)methyl](4-{[N-(4-ethylphenyl)carbamoyloxy]methyl}-1-[3-hydroxy-2-(hydroxymethyl)-2-methylpropanoyl](4-piperidyl))carboxamide] | 275 |
| CCc1ccc(NC(=O)OCC2(C(=O)NCc3ccccc3Cl)CCN(Cc3ccccc3)CC2)cc1 [N-[(2-chlorophenyl)methyl](4-{[N-(4-ethylphenyl)carbamoyloxy]methyl}-1-benzyl(4-piperidyl))carboxamide] | 14400 |
| CCc1ccc(NC(=O)OCC2(C(=O)NCc3ccccc3Cl)CCN(C)CC2)cc1 [N-[(2-chlorophenyl)methyl](4-{[N-(4-ethylphenyl)carbamoyloxy]methyl}-1-methyl(4-piperidyl))carboxamide] | 4930 |
| CCc1ccc(NC(=O)OCC2(C(=O)NCc3ccccc3Cl)CCN(C(=O)c3ccc(C(=O)c4ccccc4)cc3)CC2)cc1 [N-[(2-chlorophenyl)methyl](4-{[N-(4-ethylphenyl)carbamoyloxy]methyl}-1-{[4-(phenylcarbonyl)phenyl]carbonyl}(4-piperidyl))carboxamide] | 4950 |
| Cc1ccc(NC(=O)OCC2(C(=O)NCc3ccccc3Cl)CCOCC2)cc1 [N-[(2-chlorophenyl)methyl](4-{[N-(4-methylphenyl)carbamoyloxy]methyl}(2H-3,4,5,6-tetrahydropyran-4-yl))carboxamide] | 697 |
| Cc1cccc(F)c1NC(=O)OCC1(C(=O)NCc2ccccc2Cl)CCOCC1 [N-[(2-chlorophenyl)methyl](4-{[N-(6-fluoro-2-methylphenyl)carbamoyloxy]methyl}(2H-3,4,5,6-tetrahydropyran-4-yl))carboxamide] | 14200 |
| CCc1ccc(NC(=O)OCC2(C(=O)NCc3ccccc3Cl)CCCCC2)cc1 [N-[(2-chlorophenyl)methyl]({[N-(4-ethylphenyl)carbamoyloxy]methyl}cyclohexyl)carboxamide] | 238 |
| CCc1ccc(NC(=O)OCC2(C(=O)NCc3ccccc3Cl)CC2)cc1 [N-[(2-chlorophenyl)methyl]({[N-(4-ethylphenyl)carbamoyloxy]methyl}cyclopropyl)carboxamide] | 3050 |
| CCc1ccc(NC(=O)NC(C)(C)C(=O)NCc2ccccc2Cl)cc1 [N-[(2-chlorophenyl)methyl]-2-{[(4-ethylphenyl)amino]carbonylamino}-2-methylpropanamide] | 13600 |
| CCc1ccc(NC(=O)OCC(C)(C)C(=O)NCc2ccccc2Cl)cc1 [N-[(2-chlorophenyl)methyl]-3-[N-(4-ethylphenyl)carbamoyloxy]-2,2-dimethylpropanamide] | 2510 |

| Structure (SMILES) | IC50 [nM] |
| --- | --- |
| CCc1ccc(NC(=O)OCC(C)(NC(=O)CO)C(=O)NCc2ccccc2Cl)cc1 (stereo not drawn) [N-[(2-chlorophenyl)methyl]-3-[N-(4-ethylphenyl)carbamoyloxy]-2-(2-hydroxyacetylamino)-2-methylpropanamide] | 9180 |
| CCc1ccc(NC(=O)OCC(C)(NC(=O)OC)C(=O)NCc2ccccc2Cl)cc1 (stereo not drawn) [N-[(2-chlorophenyl)methyl]-3-[N-(4-ethylphenyl)carbamoyloxy]-2-(methoxycarbonylamino)-2-methylpropanamide] | 4090 |
| CCc1ccc(NC(=O)NCC(C)(C)C(=O)NCc2ccccc2Cl)cc1 [N-[(2-chlorophenyl)methyl]-3-{[(4-ethylphenyl)amino]carbonylamino}-2,2-dimethylpropanamide] | 8820 |
| CCc1ccc(NC(=O)OCCC(C)(C)C(=O)NCc2ccccc2Cl)cc1 [N-[(2-chlorophenyl)methyl]-4-[N-(4-ethylphenyl)carbamoyloxy]-2,2-dimethylbutanamide] | 235 |
| CCc1ccc(NC(=O)OCCCC(=O)NCc2ccccc2Cl)cc1 [N-[(2-chlorophenyl)methyl]-4-[N-(4-ethylphenyl)carbamoyloxy]butanamide] | 3430 |
| CCc1ccc(NC(=O)NCCC(C)(C)C(=O)NCc2ccccc2Cl)cc1 [N-[(2-chlorophenyl)methyl]-4-{[N-(4-ethylphenyl)carbamoyl]amino}-2,2-dimethylbutanamide] | 4730 |
| CCc1ccc(NC(=O)CCC(C)(C)C(=O)NCc2ccccc2Cl)cc1 [N-[(2-chlorophenyl)methyl]-N′-(4-ethylphenyl)-2,2-dimethylpentane-1,5-diamide] | 18500 |
| O=C(Nc1ccc(C(F)(F)F)cc1)OCC1(C(=O)NCc2ccccc2Cl)CCN(C(=O)CO)CC1 [N-[(2-chlorophenyl)methyl][1-(2-hydroxyacetyl)-4-({N-[4-(trifluoromethyl)phenyl]carbamoyloxy}methyl)(4-piperidyl)]carboxamide] | 456 |
| CCc1ccc(NC(=O)NCC2CCCN2C(=O)NCc2ccccc2Cl)cc1 (stereo not drawn) [N-[(2-chlorophenyl)methyl][2-({[(4-ethylphenyl)amino]carbonylamino}methyl)pyrrolidinyl]carboxamide] | 2620 |
| Cc1nc(-c2ccc(NC(=O)OCC3(C(=O)NCc4ccccc4Cl)CCOCC3)cc2)cs1 [N-[(2-chlorophenyl)methyl][4-({N-[4-(2-methyl(1,3-thiazol-4-yl))phenyl]carbamoyloxy}methyl)(2H-3,4,5,6-tetrahydropyran-4-yl)]carboxamide] | 3920 |
| CC(O)c1ccc(NC(=O)OCC2(C(=O)NCc3ccccc3Cl)CCOCC2)cc1 (stereo not drawn) [N-[(2-chlorophenyl)methyl][4-({N-[4-(hydroxyethyl)phenyl]carbamoyloxy}methyl)(2H-3,4,5,6-tetrahydropyran-4-yl)]carboxamide] | 5230 |
| CC(C)c1ccc(NC(=O)OCC2(C(=O)NCc3ccccc3Cl)CCOCC2)cc1 [N-[(2-chlorophenyl)methyl][4-({N-[4-(methylethyl)phenyl]carbamoyloxy}methyl)(2H-3,4,5,6-tetrahydropyran-4-yl)]carboxamide] | 498 |
| O=C(Nc1ccc(C(F)(F)F)cc1)OCC1(C(=O)NCc2ccccc2Cl)CCOCC1 [N-[(2-chlorophenyl)methyl][4-({N-[4-(trifluoromethyl)phenyl]carbamoyloxy}methyl)(2H-3,4,5,6-tetrahydropyran-4-yl)]carboxamide] | 1140 |
| O=C(Nc1ccc(C(F)(F)F)cc1)OCC1(C(=O)NCc2ccccc2Cl)CCNCC1 [N-[(2-chlorophenyl)methyl][4-({N-[4-(trifluoromethyl)phenyl]carbamoyloxy}methyl)(4-piperidyl)]carboxamide] | 5940 |
| Cc1ccc(NC(=O)OCC2(C(=O)NCc3ccccc3Cl)CCOCC2)cc1C(F)(F)F [N-[(2-chlorophenyl)methyl][4-({N-[4-methyl-3-(trifluoromethyl)phenyl]carbamoyloxy}methyl)(2H-3,4,5,6-tetrahydropyran-4-yl)]carboxamide] | 12100 |
| CCc1ccc(NC(=O)N(C)CC2(C(=O)NCc3ccccc3Cl)CCN(C(=O)CO)CC2)cc1 [N-[(2-chlorophenyl)methyl][4-({[(4-ethylphenyl)amino]-N-methylcarbonylamino}methyl)-1-(2-hydroxyacetyl)(4-piperidyl)]carboxamide] | 18700 |
| CCc1ccc(NC(=O)NCC2(C(=O)NCc3ccccc3Cl)CCNCC2)cc1 [N-[(2-chlorophenyl)methyl][4-({[(4-ethylphenyl)amino]carbonylamino}methyl)(4-piperidyl)]carboxamide] | 18200 |
| CCc1ccc(NC(=O)NCC2(C(=O)NCc3ccccc3Cl)CCN(C(=O)CO)CC2)cc1 [N-[(2-chlorophenyl)methyl][4-({[(4-ethylphenyl)amino]carbonylamino}methyl)-1-(2-hydroxyacetyl)(4-piperidyl)]carboxamide] | 1880 |
